Data as given in patent US8906901B2, “Administration of dipeptidyl peptidase inhibitors” (priority 2005, dated 2014).

Tested on: db/db (BKS.Cg—+Lepr^db/+Lepr^db) mice
Assay: Plasma glucose after 21 days of administration in powder chow, alone or with pioglitazone
Format: in vivo
Settings: male db/db mice, 21 days in chow, fed condition; 0.03% (w/w) succinate salt of Compound I and/or 0.0075% (w/w) pioglitazone hydrochloride; mean (n=7) ± SD
Text: Male db/db (BKS.Cg—+Lepr^db/+Lepr^db) mice (6 weeks of age, CLEA Japan (Tokyo, Japan)) were divided into 4 groups (n=7 in each group) comprising Group A to Group D. Group A had free access to CE-2 powder chow (CLEA Japan) for 21 days. […] During 21 days of administration of the powder chow, there were not significant differences in the administration amount of the powder chow in the above 4 groups. After 21 days of administration of the powder chow, blood samples were taken from the orbital veins of the mice by capillary pipette under feeding condition, and plasma glucose levels were enzymatically measured by using Autoanalyzer 7080 (Hitachi, Japan). The values in the table means average (n=7)±standard deviation.

`Cn1c(=O)cc(N2CCC[C@@H](N)C2)n(Cc2cc(F)ccc2C#N)c1=O` [Compound I, 2-[6-(3-Amino-piperidin-1-yl)-3-methyl-2,4-dioxo-3,4-dihydro-2H-pyrimidin-1-ylmethyl]-4-fluoro-benzonitrile] was tested, and the “Plasma Glucose” value was 410.3 ± 47.9 mg/dL.
